According to US10815231B2, “[1,2,4] triazolo [1,5-a] pyridine derivative and crystalline form thereof” (WEST CHINA HOSPITAL, SICHUAN UNIVERSITY, priority 2016, dated 2020):
Where “and” joins values, the source holds several entries; their conditions need not be identical. Equal values may be shown once.

Experiments:
[1] = system: A549 cells; experiment: MTT detection method, inhibitory effect against A549 cells; type: cell-based; settings: 5000 cells/well, treatment 48 h; for The mean inhibitory ratio (%): mean of three; for The inhibitory ratio (%) for three parallel assays: single parallel assays
From the text: (§1) MTT detection method was used, and MTT is a yellow compound and a dye accepting hydrogen ions, and can be used as the respiratory chain in mitochondria of viable cells. Under the action of succinate dehydrogenase and cytochrome C, the tetrazolium ring broke to form blue formanzan crystal, and the formation amount of formanzan crystal was only directly proportional to the viable counts. The formanzan crystal formed by reduction can dissolve in dimethyl sulfoxide (DMSO), and the optical density (OD) value can be determined at 490 nm using ELISA, to reflect the viable counts.
(§2) Lung cancer cell lines: A549 and H1299.
(§3) Experimental materials: lung cancer cell lines, instruments and tools for cell culture, MTT, and the compound mother liquid (10 mmol/L).
(§4) (3-1) Cell lines A549 and H1299 were recovered, and when the cells were in good conditions, namely cells grew to about 80% after one passage (i.e. the logarithmic growth phase), the cells were planked (96-well plate).
(§5) (3-2) Firstly, cells were collected, and the concentration of cell suspension was adjusted with counting chamber. Cells were seeded in 96-well plate at 1000-10000 cells/well, and the detailed cell numbers in each well were dependent on the growth rate of different cells and the action time of drugs. A549 cells were seeded at 5000 cells, while H1299 cells were also seeded at 5000 cells, 200 μl for each well (100 μl cell suspension+100 μl drug dilution at different concentration gradient). The edge wells (36) were added 200 μl culture media (for prevention of edge effect).
(§6) (3-3) After planking and adding drugs, the plate was treated at 24 h, 48 h, and 72 h, and then for coloration, each well was added 200 μl culture media containing 20 μl MTT solution (5 mg/mL). The plate was continually cultured for 1-4 hours, and the culture supernatant fluid in each well was carefully absorbed. For suspension cells, the culture supernatant fluid in each well need be centrifuged before drawing. 150 μl DMSO was added to each well, and the plate was shaken on a shaking table for 15-20 min, to allow the crystals to be completely dissolved.
(§7) (3-4) Colorimetry: The colorimetry was performed by ELISA, and the optical absorption value of each well was tested at a wavelength of 490 nm or 570 nm, and the result was recorded.
(§8) (3-5) Calculation Inhibition ratio=(the control−the drug)/the control×100%
(§9) IC50 (50% inhibitory concentration) can be calculated by spass software based on the inhibitory ratio at different concentration.

[2] = system: H1299 cells; experiment: MTT detection method, inhibitory effect against H1299 cells; type: cell-based; settings: 5000 cells/well, treatment 48 h; for The mean inhibitory ratio (%): mean of three; for The inhibitory ratio (%) for three parallel assays: single parallel assays
From the text: as §1, §2, §3, §4, §5, §6, §7, §8, §9

| Structure (SMILES) | The mean inhibitory ratio (%) ([1]; 25 μm) | The inhibitory ratio (%) for three parallel assays ([1]; 25 μm) | The mean inhibitory ratio (%) ([1]; 40 μm) | The inhibitory ratio (%) for three parallel assays ([1]; 40 μm) | The mean inhibitory ratio (%) ([1]; 50 μm) | The inhibitory ratio (%) for three parallel assays ([1]; 50 μm) | The mean inhibitory ratio (%) ([2]; 50 μm) | The inhibitory ratio (%) for three parallel assays ([2]; 50 μm) | The mean inhibitory ratio (%) ([2]; 80 μm) | The inhibitory ratio (%) for three parallel assays ([2]; 80 μm) | The mean inhibitory ratio (%) ([2]; 100 μm) | The inhibitory ratio (%) for three parallel assays ([2]; 100 μm) | The mean inhibitory ratio (%) ([1]; 100 μm) | The inhibitory ratio (%) for three parallel assays ([1]; 100 μm) | The mean inhibitory ratio (%) ([2]; 25 μm) | The inhibitory ratio (%) for three parallel assays ([2]; 25 μm) |
| --- | --- | --- | --- | --- | --- | --- | --- | --- | --- | --- | --- | --- | --- | --- | --- | --- |
| N#Cc1nc2cccc(-c3ccc(CN4CCOCC4)cc3)n2n1 [Compound 3, 2-cyano-5-[4-(4-morpholinylmethyl)phenyl]-[1,2,4]triazolo[1,5-a]pyridine] | 22 | 20% and 26% | 22 | 22% and 24% and 20% | 25 | 24% and 27% | 32 | 33% and 32% | 32 | 32% | 34 | 33% and 34% and 35% |  |  |  |  |
| Ic1nc2cccc(-c3ccc(CN4CCOCC4)cc3)n2n1 [Compound 2, 2-iodo-5-[4-(4-morpholinylmethyl)phenyl]-[1,2,4]triazolo[1,5-a]pyridine] | 27 | 26% and 25% and 30% | 22 | 21% and 22% | 24 | 23% and 27% | 31 | 32% and 31% and 29% | 33 | 33% and 32% | 31 | 32% and 29% |  |  |  |  |
| Nc1nc2cccc(-c3ccc(CN4CCOCC4)cc3)n2n1 [Compound 1, 2-amino-5-[4-(4-morpholinylmethyl)phenyl]-[1,2,4]triazolo[1,5-a]pyridine] | 10 | 10% and 9% |  |  | 29 | 28% and 31% and 29% | 95 | 93% and 94% and 97% |  |  | 85 | 86% and 84% | 31 | 31% and 30% | 62 | 63% and 61% |
